Results taken from ChEMBL document CHEMBL5523725, “Fragment-Based Anti-inflammatory Agent Design and Target Identification: Discovery of AF-45 as an IRAK4 Inhibitor to Treat Ulcerative Colitis and Acute Lung Injury” (J Med Chem, 2024).
Active and inactive are the calls of the source. No cut-off for these calls is given here.

What was measured:
[1] = biological target: Aurora kinase B (Homo sapiens) (UniProt Q96GD4); assay: Inhibition of human AurB assessed as residual activity at 10 uM by Eurofins kinase profiler method relative to control
Mus musculus [2] = assay: Antiinflammatory activity in LPS induced C57BL/6 mouse model of acute lung injury assessed as reduction in spleen over activation at 20 to 40 mg/kg, ip preadministered for 30 mins followed by LPS administration and measured after 6 hrs by H and E staining based analysis; assay type: functional, organism-based; details: dose 20-40 mg/kg, time 6.5 hrs
[3] = Stability of compound in simulated intestinal fluid at 10 mg/ml incubated for 8 hrs and measured every 2 hrs hy HPLC analysis; assay type: ADME; details: simulated gi fluid
[4] = Stability of compound in enzyme free simulated intestinal fluid at 10 mg/ml incubated for 8 hrs and measured every 2 hrs hy HPLC analysis; assay type: ADME; details: simulated gi fluid
RAW264.7 [5] = assay: Antiinflammatory activity in LPS-induced mouse RAW264.7 cells assessed as inhibition of IL-6 release at 10 uM pretreated for 30 mins followed by LPS stimulation and measured after 24 hrs by ELISA relative to control; assay type: functional; details: time 24.5 hrs
[6] = Half life in male Sprague-Dawley rat at 1 mg/kg, iv administered via tail vein and measured upto 24 hrs; assay type: ADME, organism-based; details: in vivo
[7] = Stability of compound in simulated gastric fluid at 10 mg/ml incubated for 8 hrs and measured every 2 hrs hy HPLC analysis; assay type: ADME; details: simulated gi fluid
Mus musculus [8] = assay: Antiinflammatory activity in male C57BL/6 mouse model of DSS-induced ulcerative colitis assessed as increase in body weight at 20 mg/kg, po administered for 11 days with subsequent administration of DSS for 8 days and measured on day 11; assay type: functional, organism-based; details: time 11.0 day
RAW264.7 [9] = assay: Inhibition of NFkappaB/MAPK signaling pathway in mouse RAW264.7 cells assessed as reduction in LPS-induced IkappaBalpha degradation at 50 uM by Western blot analysis; assay type: cell-based
[10] = biological target: T1, Inhibitor of nuclear factor kappa-B kinase subunit beta (Homo sapiens) (UniProt O14920); assay: Inhibition of IKKbeta (unknown origin) at 10 uM relative to control
T1 sequence (whole entry): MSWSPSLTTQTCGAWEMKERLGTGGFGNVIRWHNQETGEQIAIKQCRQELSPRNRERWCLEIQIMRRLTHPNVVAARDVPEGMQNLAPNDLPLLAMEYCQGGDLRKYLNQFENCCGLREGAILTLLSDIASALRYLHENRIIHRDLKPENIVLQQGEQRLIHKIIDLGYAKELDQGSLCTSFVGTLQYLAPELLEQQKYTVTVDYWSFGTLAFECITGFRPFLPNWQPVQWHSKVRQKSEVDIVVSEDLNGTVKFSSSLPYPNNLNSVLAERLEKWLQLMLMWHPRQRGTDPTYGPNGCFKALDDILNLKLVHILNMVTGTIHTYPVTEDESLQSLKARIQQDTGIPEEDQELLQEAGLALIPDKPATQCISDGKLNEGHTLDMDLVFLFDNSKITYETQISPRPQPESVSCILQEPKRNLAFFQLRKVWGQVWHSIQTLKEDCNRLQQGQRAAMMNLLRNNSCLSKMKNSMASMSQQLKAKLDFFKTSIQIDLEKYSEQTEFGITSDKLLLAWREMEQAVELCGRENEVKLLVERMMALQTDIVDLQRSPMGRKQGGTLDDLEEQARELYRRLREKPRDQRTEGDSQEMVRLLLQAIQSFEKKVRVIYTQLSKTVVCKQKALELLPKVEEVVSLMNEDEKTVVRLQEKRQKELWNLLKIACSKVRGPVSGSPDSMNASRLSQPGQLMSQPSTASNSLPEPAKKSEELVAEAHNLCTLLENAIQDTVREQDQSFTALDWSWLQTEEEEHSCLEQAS

Mus musculus [11] = assay: Antiinflammatory activity in LPS induced C57BL/6 mouse model of acute lung injury assessed as inhibition of IL-6 release in BALF at 20 to 40 mg/kg, ip preadministered for 30 mins followed by LPS administration and measured after 6 hrs by ELISA; assay type: functional, organism-based; details: dose 20-40 mg/kg, time 6.5 hrs
Mus musculus [12] = assay: Antiinflammatory activity in male C57BL/6 mouse model of DSS-induced ulcerative colitis assessed as reduction in macrophage infiltration in colon at 10 to 20 mg/kg, po administered for 11 days with subsequent administration of DSS for 8 days by F4/80 labeling based immunohistochemistry analysis; assay type: functional, organism-based; details: dose 10-20 mg/kg, time 11.0 day
Mus musculus [13] = assay: Antiinflammatory activity in male C57BL/6 mouse model of DSS-induced ulcerative colitis assessed as restoration of protein status at 10 to 20 mg/kg, po administered for 11 days with subsequent administration of DSS for 8 days by H and E staining based analysis; assay type: functional, organism-based; details: dose 10-20 mg/kg, time 11.0 day
[14] = Clearance in male Sprague-Dawley rat at 10 mg/kg, po measured upto 24 hrs; assay type: ADME, organism-based; details: in vivo
[15] = Clearance in male Sprague-Dawley rat at 1 mg/kg, iv administered via tail vein and measured upto 24 hrs; assay type: ADME, organism-based; details: in vivo
Mus musculus [16] = assay: Antiinflammatory activity in LPS induced C57BL/6 mouse model of acute lung injury assessed as reduction in alveolar wall thickening at 20 mg/kg, ip preadministered for 30 mins followed by LPS administration and measured after 6 hrs by H and E staining based analysis; assay type: functional, organism-based; details: time 6.5 hrs
RAW264.7 [17] = assay: cells; details: Mus musculus
Description: Antiinflammatory activity in LPS-induced mouse RAW264.7 cells assessed as inhibition of IL-6 release pretreated for 30 mins followed by LPS stimulation and measured after 24 hrs by ELISA

[18] = AUC (0 to t) in male Sprague-Dawley rat at 10 mg/kg, po measured upto 24 hrs; assay type: ADME, organism-based; details: in vivo
[19] = Cmax in male Sprague-Dawley rat at 10 mg/kg, po measured upto 24 hrs; assay type: ADME, organism-based; details: in vivo
[20] = Half life in male Sprague-Dawley rat at 10 mg/kg, po measured upto 24 hrs; assay type: ADME, organism-based; details: in vivo
[21] = Drug uptake in male Sprague-Dawley rat blood at 1 mg/kg, iv administered via tail vein and measured after 24 hrs; assay type: ADME, organism-based; details: in vivo
Mus musculus [22] = assay: Antiinflammatory activity in male C57BL/6 mouse model of DSS-induced ulcerative colitis assessed as reversal of invisible pulp structure at 10 to 20 mg/kg, po administered for 11 days with subsequent administration of DSS for 8 days by H and E staining based analysis; assay type: functional, organism-based; details: dose 10-20 mg/kg, time 11.0 day
[23] = biological target: Interleukin-1 receptor-associated kinase 1 (Homo sapiens, UniProt P51617); assay: Inhibition of IRAK1 (unknown origin) at 10 uM relative to control
Mus musculus [24] = assay: In vivo binding affinity to IRAK4 in DSS-induced ulcerative colitis C57BL/6 mouse colon assessed as thermal stabilization at 10 to 20 mg/kg, po administered for 11 days with subsequent administration of DSS for 8 days by CETSA; assay type: functional, organism-based; details: dose 10-20 mg/kg, time 11.0 day
[25] = AUC (0 to t) in male Sprague-Dawley rat at 1 mg/kg, iv administered via tail vein and measured upto 24 hrs; assay type: ADME, organism-based; details: in vivo
Mus musculus [26] = assay: Antiinflammatory activity in male C57BL/6 mouse model of DSS-induced ulcerative colitis assessed as reversal of ruptured spleen at 10 to 20 mg/kg, po administered for 11 days with subsequent administration of DSS for 8 days by H and E staining based analysis; assay type: functional, organism-based; details: dose 10-20 mg/kg, time 11.0 day
Mus musculus [27] = assay: Antiinflammatory activity in LPS induced C57BL/6 mouse model of acute lung injury assessed as reduction in number of macrophages in spleen at 20 to 40 mg/kg, ip preadministered for 30 mins followed by LPS administration and measured after 6 hrs by F4/80 labeling based immunohistochemical analysis; assay type: functional, organism-based; details: dose 20-40 mg/kg, time 6.5 hrs

Aurora kinase B (Homo sapiens), sequence (Q96GD4 whole entry): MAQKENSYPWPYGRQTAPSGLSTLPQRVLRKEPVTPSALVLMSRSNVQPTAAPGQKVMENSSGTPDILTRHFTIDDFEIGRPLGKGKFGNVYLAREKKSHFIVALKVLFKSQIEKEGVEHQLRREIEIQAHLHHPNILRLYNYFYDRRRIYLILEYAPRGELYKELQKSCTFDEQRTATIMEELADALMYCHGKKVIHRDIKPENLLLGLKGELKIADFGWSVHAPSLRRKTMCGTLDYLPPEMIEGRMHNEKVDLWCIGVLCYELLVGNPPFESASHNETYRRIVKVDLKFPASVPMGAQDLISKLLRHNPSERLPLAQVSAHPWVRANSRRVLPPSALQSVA
Interleukin-1 receptor-associated kinase 1, sequence (P51617 whole entry, looked up): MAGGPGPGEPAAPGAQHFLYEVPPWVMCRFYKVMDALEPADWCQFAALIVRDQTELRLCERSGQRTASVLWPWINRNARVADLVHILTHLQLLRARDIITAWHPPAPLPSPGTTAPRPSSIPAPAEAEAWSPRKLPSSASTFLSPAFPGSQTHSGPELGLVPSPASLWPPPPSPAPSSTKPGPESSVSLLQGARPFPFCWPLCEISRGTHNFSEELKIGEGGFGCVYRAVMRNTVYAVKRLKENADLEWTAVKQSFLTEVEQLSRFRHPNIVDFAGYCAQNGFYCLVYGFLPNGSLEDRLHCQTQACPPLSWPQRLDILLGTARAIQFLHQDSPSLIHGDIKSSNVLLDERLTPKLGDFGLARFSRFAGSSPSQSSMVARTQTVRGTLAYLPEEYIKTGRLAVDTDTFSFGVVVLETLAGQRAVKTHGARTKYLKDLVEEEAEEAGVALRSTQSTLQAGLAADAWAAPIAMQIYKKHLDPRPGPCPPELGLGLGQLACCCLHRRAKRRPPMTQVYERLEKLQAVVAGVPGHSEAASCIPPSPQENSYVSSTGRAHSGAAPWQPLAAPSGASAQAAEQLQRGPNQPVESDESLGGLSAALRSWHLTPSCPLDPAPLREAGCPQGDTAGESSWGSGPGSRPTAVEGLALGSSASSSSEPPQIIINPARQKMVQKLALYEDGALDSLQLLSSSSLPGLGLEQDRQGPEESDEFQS

Activity [1]: 70% | Stability [3]: Stable | Stability [4]: Stable | half-life [6]: 168 min | Stability [7]: Stable | inhibition [10]: -1.64% | CL [14]: 0.089 L/h/kg | clearance [15]: 3.83 mL/min/kg | IC50 (RAW264.7 [17]): 1270 nM | AUCt [18]: 10653.6 ng·h/mL | Cmax [19]: 1250 ng/mL | half-life [20]: 336 min | Drug uptake [21]: Active | inhibition [23]: 87% | AUC(0-t) at 24 h [25]: 3800 ng·h/mL
Compound: COc1cc2c(O[C@H]3CC[C@@H](N)CC3)ncnc2cc1OCc1ccccc1
Activity (Mus musculus [2]): Active | inhibition at 10 µM (RAW264.7 [5]): 92.4% | Activity (Mus musculus [8]): Active | inhibition (RAW264.7 [9]): Active | Activity (Mus musculus [11]): Active | Activity (Mus musculus [12]): Active | Activity (Mus musculus [13]): Active | Activity (Mus musculus [16]): Active | Activity (Mus musculus [22]): Active | Activity (Mus musculus [24]): Active | Activity (Mus musculus [26]): Active | Activity (Mus musculus [27]): Active
